Assay [1] relates to dSPN glutamatergic synapses. Nature of the assay: Spike-timing-dependent LTD induction (post-pre pairing) in dSPNs, ex vivo corticostriatal slices, perforated-patch or whole-cell recording. In kind it is cell-based, mice. An excerpt: Male C57Bl/6 and FVB mice expressing tdTomato or eGFP under control of either the Drd1 or Drd2 receptor regulatory elements were used. All the mice used for the study were hemizygous for these transgenes. For some experiments, D1-tdTomato BAC mice were crossed with a transgenic line expressing Cre recombinase under control of the ChAT promoter. All mice were 8-10 weeks of age before stereotaxic surgery. Animal use procedures were reviewed and approved by the Northwestern Institutional Animal Care and Use Committee.
Slices were then transferred to a holding chamber containing aCSF. After an incubation period at 34° C. for 30 min, the slices were then kept in the holding chamber at the room temperature for another 30 min before use.
Individual slices were transferred to a recording chamber and were continuously perfused (2-3 ml min^−1) with aCSF for the duration of the experiment. Experiments were performed in the dorsolateral striatum at elevated temperature (30-31° C.).
All the recordings were made using a MultiClamp 700 A amplifier, and signals were filtered at 2 kHz and digitized at 10 kHz. Data were excluded when the series resistance changed >20% over the time course of the experiment. […] Capacitance current was continuously monitored during perforation by applying a 5-10 mV pulse from a holding potential of −70 mV. The amplifier bridge circuit was adjusted to compensate for series resistance and continuously monitored during recordings. Electrode capacitance was also compensated. Data were excluded when the input resistance (Ri) changed >20% over the time course of the experiment.
Data analysis was conducted with Igor Pro 6 (Wavemetrics, Lake Oswego, Oreg.) and Clampfit 9 (Molecular Devices). EPSP amplitude was calculated from 50-60 sweeps immediately before the start of induction and 20-30 min after the end of induction. The change in EPSP amplitude was calculated by averaging EPSP values after the induction and normalized to the average baseline EPSP amplitude. Compiled data were expressed as mean±s.e.m. Statistical tests were performed using Excel (Microsoft, Redmond, Wash.) and SigmaStat (Systat, San Jose, Calif.). Non-parametric Mann-Whitney or Wilcoxon tests were used to assess the experiment results, using a probability threshold of 0.05.
To determine if M4Rs were modulating synaptic plasticity, a spike-timing-dependent plasticity (STDP) paradigm was used. […] Once identified, neurons were monitored and controlled with perforated-patch recording to preserve intracellular signaling mechanisms and to allow stable, long-term monitoring of synaptic strength (FIG. 1A).
Synaptic plasticity was induced by pairing local stimulation of glutamatergic afferent fibers with postsynaptic spikes evoked by short bursts of intracellular current injection that were repeated at 5 Hz (FIGS. 1B, 4A).

The subject of assay [2] is ChIs expressing DREADD hM3D(q). The experiment in a line: Discharge rate of DREADD hM3D(q)-expressing cholinergic interneurons, cell-attached patches in slices. The format is cell-based, mice. An excerpt:
To determine the importance of endogenous cholinergic signaling in regulating synaptic plasticity, the discharge rate of ChIs was elevated using a Cre-dependent DREADD (Alexander et al., 2009; Armbruster et al., 2007; Ferguson et al., 2011; Kozorovitskiy et al., 2012; herein incorporated by reference in their entireties). Briefly, bi-transgenic mice expressing tdTomato in dSPNs and Cre-recombinase under control of the choline acetyltransferase (ChAT) promoter received striatal stereotaxic injections of an adeno-associated virus (AAV; serotype 2/8) containing the hM3D(q) expression construct (the University of North Carolina Vector Core). Mice were allowed to recover for 5-6 weeks before recordings. To activate the DREADD expressing ChIs, clozapine-N-oxide (CNO) was bath applied to ex vivo brain slice preparations.
To address the possibility that in an ex vivo slice preparation at 30-31° C., spontaneous ChI activity is low and could lead to effective enzymatic degradation of ACh near its release site and weak M4R activation, the ACh esterase inhibitor physostigmine (10 μM) was co-applied with the M4R PAM. […] Another way to compensate for lower than normal cholinergic signaling in ex vivo slices is to use designer receptors exclusively activated by designer drugs (DREADDs) to selectively increase ChI discharge rate (Alexander et al., 2009; Armbruster et al., 2007; herein incorporated by reference in their entireties). To this end, bi-transgenic mice expressing tdTomato in dSPNs and Cre-recombinase under control of the choline acetyltransferase (ChAT) promoter received striatal injections of an adeno-associated virus (AAV) containing an hM3D(q) expression construct having an upstream foxed STOP codon; this STOP codon is effectively excised by Cre-recombinase leading to DREADD expression (Ferguson et al., 2011; Kozorovitskiy et al., 2012; herein incorporated by reference in their entireties) (FIG. 2A). […]

In assay [3] the test system is dSPN glutamatergic synapses. Nature of the assay: Spike-timing-dependent LTP induction (pre-post pairing) in dSPNs, ex vivo slices. In kind it is cell-based, mice.
In assay [4] the test system is iSPN synapses. The experiment in a line: Pre-post pairing protocol in iSPNs from 6-OHDA lesioned, L-DOPA treated mice. Conditions: 6-OHDA lesioned mice shortly after L-DOPA treatment.
In assay [5] the test system is forelimb use asymmetry. The experiment in a line: Forelimb-use asymmetry test (cylinder test) in 6-OHDA lesioned mice. The format is in vivo. Conditions: for forelimb use asymmetry: n=9. How it is done: (§1) After LID induction, mice were treated with either L-DOPA or L-DOPA and VU152100 (20-120 mg/kg, i.p.) on days 6-8; VU152100 is an M4R PAM with improved pharmacokinetic properties than VU10010.

The subject of assay [6] is phosphorylated ERK1/2 and phosphorylated histone 3. The experiment in a line: Cells immunoreactive for pERK1/2 and pH3 in the dorsolateral striatum of LID mice. The format is in vivo. The protocol: as §1
Assay [7] deals with L-DOPA-induced AIMs. The experiment in a line: Abnormal involuntary movement (AIM) scoring in unilateral 6-OHDA lesioned mice with L-DOPA-induced dyskinesia. The format is in vivo. The protocol: as §1
Assay [8] deals with NMDAR-mediated currents in dSPNs. Nature of the assay: NMDAR-mediated uEPSCs and EPSCs in dSPNs, whole-cell voltage clamp. The format is cell-based, mice. The note with it: muscarine 3 μM; local electrical stimulation. How it is done: For whole-cell voltage clamp recordings, patch pipettes were loaded with internal recording solution containing (mM): 120 CsMeSO3, 15 CsCl, 8 NaCl, 10 HEPES, 0.2 EGTA, 10 tetraethylammonium Chloride (TEA-Cl), 5 QX-314, 2 Mg-ATP, 0.3 Na-GTP; pH was adjusted to 7.25 with CsOH and osmolarity to ˜305 mOsm l^−1. All the recordings were made using a MultiClamp 700 A amplifier, and signals were filtered at 2 kHz and digitized at 10 kHz. Data were excluded when the series resistance changed >20% over the time course of the experiment. For perforated patch recordings, the internal recording solution comprised (in mM): 125 KMeSO4, 14 KCl, 2 MgCl2, 0.2 EGTA, 10 HEPES; pH was adjusted to 7.25 with NaOH and osmolarity to ˜280 mOsm l^−1. Amphotericin B was used to achieve electrical access through the perforated-patch method (Shen et al., 2007; 2008; herein incorporated by reference in their entireties). Capacitance current was continuously monitored during perforation by applying a 5-10 mV pulse from a holding potential of −70 mV. The amplifier bridge circuit was adjusted to compensate for series resistance and continuously monitored during recordings. Electrode capacitance was also compensated. Data were excluded when the input resistance (Ri) changed >20% over the time course of the experiment.
Glutamate uncaging was achieved using a Verdi/Mira (Coherent Laser Group, Santa Clara, Calif.) (Plotkin et al., 2014). 5 mM MNI-glutamate was superfused over the slice at 0.4 ml/hr using a syring pump and multi-barreled perfusion manifold (Cell MicroControls, Norfolk, Va.). The perfusion solution was (in mM): 124 NaCl, 3 KCl, 2 CaCl2, 1 NaH2PO4, 26 HEPES and 16.66 glucose, and also contained (in μM): 3 muscarine, 10 serine, 10 NBQX and 10 gabazine, plus or minus: 3 SKF81297 and/or 5 VU10010). Glutamate was uncaged adjacent to individual spines using 1 ms pulses of 720-725 nm light typically 10-20 mW in power at the sample plane. Photolysis power was tuned via a third Pockels cell modulator (Con Optics, Danbury, Conn.) to achieve uEPSCs≤5 pA. uEPSC amplitudes were measured from averaged (3-5 repetitions) traces. All uncaging experiments were performed in 0 mM Mg^2+-containing solutions.
To determine the situation in dSPNs, the effect of muscarine and VU10010 on NMDAR-mediated EPSCs evoked by uncaging glutamate on spine heads (uEPSCs) was examined in the presence of SKF81297.

[9] abbreviates: VU152100 co-administered with L-DOPA vs L-DOPA.

Entries after “also recorded” stand apart in the source; their conditions may differ.

On to `Cc1c(C(=O)NN2CCCCC2)nn(-c2ccc(Cl)cc2Cl)c1-c1ccc(I)cc1` [AM251], for which, in assay [1] (AM251 2 μM with CNO), the “LTD induction in dSPNs” value is on record as “dependent upon endocannabinoid (eCB) CB 1 receptors; also recorded: LTD was blunted”.
For the compound `N[C@@H](CCCP(=O)(O)O)C(=O)O` [APV], the “LTD induction in dSPNs” value in assay [1] (APV 50 μM with VU10010 5 μM) is “LTD was inducible”.
Consider `CCCCn1c(=O)sn(CC)c1=O` [CCG203769], for which the “LTD induction in dSPNs” value in assay [1] (CCG203769 10 μM intracellular, without VU10010) is “enhanced induction of LTD; also recorded: promoted the induction of LTD”; in assay [1] (CCG203769 with VU+PHY+MT3 (M4R antagonized)), “antagonizing M4Rs had no effect on dSPN LTD”; in assay [1] (CCG203769 with VU+PHY+MT3 (M4R antagonized), listed as CCG), “enhanced LTD induction”.
In the case of `C[N+]1([O-])CCN(C2=Nc3cc(Cl)ccc3Nc3ccccc32)CC1` [CNO, clozapine-N-oxide], in assay [2] (CNO 10 μM bath perfusion, n=5), the “ChI discharge rate, median” value is given as 6.7 Hz and the “ChI discharge rate, range” value is 4.2-7.8 Hz. Further, the “ChI spontaneous discharge rate (in words)” value in assay [2] (CNO 10 μM, cell-attached patches) is reported as “increased ChI spontaneous discharge rate”. For the same compound, the “LTD induction in adjacent dSPNs” value in assay [1] (CNO 10 μM, elevated ChI activity via DREADD hM3D(q)) is reported as “led to a robust LTD”.
As for `N[C@@H](Cc1ccc(O)c(O)c1)C(=O)O` [L-DOPA, L-3,4-dihydroxyphenylalanine], the “STDP LTP induction in dSPNs” value in assay [3] (6-OHDA lesioned mice, slices one hour after last L-DOPA injection) is reported as “led to a robust LTP; also recorded: LTP was recovered”. For the same compound, the “plasticity in iSPNs with pre-post pairing protocol” value in assay [4] was “induced an LTD”. The same compound returned a forelimb use asymmetry in assay [5] (L-DOPA alone) of 47.98±2.41.
Regarding `Cc1cccc(C#Cc2ccccc2)n1` [MPEP], the “LTD induction in dSPNs” value in assay [1] (MPEP 10 μM with CCG203769) is “prevented the LTD induction; also recorded: LTD was disrupted”.
In the case of `N#CC(=C(/N)Sc1ccccc1N)/C(C#N)=C(\N)Sc1ccccc1N` [U0126], the “STDP LTP induction in dSPNs” value in assay [3] (U0126 10 μM, dyskinetic (LID) mice) is given as “prevented LTP induction; also recorded: LTP was disrupted”; in assay [3] (U0126 10 μM, naive mice), “disrupted STDP LTP; also recorded: LTP induction was disrupted”.
`COc1ccc(CNC(=O)c2sc3nc(C)cc(C)c3c2N)cc1` [VU152100]: in assay [6] (VU0152100 60 mg kg-1), the “level of phosphorylated ERK (pERK)” value was “reduced the levels of LID biomarkers” and the “level of phosphorylated histone3 (pH3)” value is reported as “reduced the levels of LID biomarkers”. Further, in assay [6] (setting [9]), the “number of cells immunoreactive for phosphorylated ERK1/2 (pERK1/2)” value was “reduced the number of cells; also recorded: reduced expression” and the “number of cells immunoreactive for phosphorylated histone 3 (pH3)” value is reported as “reduced the number of cells; also recorded: reduced expression”. Further, the “cumulative AIM scores” value in assay [7] (VU152100 60 mg/kg systemic, with L-DOPA) was “significantly reduced cumulative AIM scores”. For the same compound, the “anti-dyskinetic effect on doubling the dose” value in assay [7] (VU152100 120 mg/kg, with L-DOPA) is “did not increase the anti-dyskinetic effect”. In addition, in assay [7] (VU152100 20, 60, 120 mg/kg), the “AIM scores, dose relation” value is given as “dose-dependent effect”. The “L-DOPA-induced AIM scores” value in assay [7] (VU152100 20-120 mg/kg i.p. with L-DOPA, days 6-8) is on record as “significantly attenuated”. Also, in assay [5] (L-DOPA+VU152100, p>0.05 vs L-DOPA), the forelimb use asymmetry came to 38.6±3.04. For the same compound, in assay [5] (VU152100 co-administered with L-DOPA), the “effect on anti-parkinsonian action of L-DOPA (forelimb use asymmetry)” value is on record as “did not occur at the expense of the anti-parkinsonian action of L-DOPA”.
Take `C[C@@H]1O[C@H](C[N+](C)(C)C)C[C@H]1O` [muscarine]: the “amplitudes of NMDAR-mediated EPSCs” value in assay [8] is listed as “reduced the amplitudes”.
In the case of `CCN1CCCC1CNC(=O)c1cc(S(N)(=O)=O)ccc1OC` (stereo not drawn) [sulpiride], the “LTD induction in dSPNs” value in assay [1] (sulpiride 10 μM with physostigmine 10 μM and VU10010 5 μM) is reported as “LTD was induced”.

The values above are taken from patent US9987242B2, “Treatment of Levodopa-induced Dyskinesias” (NORTHWESTERN UNIVERSITY, priority 2015, dated 2018).
